Read-outs that look alike come from different tables or passages of the source.
How the values were obtained:
Bovine XO [1] = target: T1, Bovine XO (Bos taurus, UniProt P80457); experiment: Determination of inhibitory potency against XO activity; assay type: biochemical
Bovine XO [2] = target: T1, Bovine XO; settings: cited from earlier work

T1 sequence (P80457 whole entry): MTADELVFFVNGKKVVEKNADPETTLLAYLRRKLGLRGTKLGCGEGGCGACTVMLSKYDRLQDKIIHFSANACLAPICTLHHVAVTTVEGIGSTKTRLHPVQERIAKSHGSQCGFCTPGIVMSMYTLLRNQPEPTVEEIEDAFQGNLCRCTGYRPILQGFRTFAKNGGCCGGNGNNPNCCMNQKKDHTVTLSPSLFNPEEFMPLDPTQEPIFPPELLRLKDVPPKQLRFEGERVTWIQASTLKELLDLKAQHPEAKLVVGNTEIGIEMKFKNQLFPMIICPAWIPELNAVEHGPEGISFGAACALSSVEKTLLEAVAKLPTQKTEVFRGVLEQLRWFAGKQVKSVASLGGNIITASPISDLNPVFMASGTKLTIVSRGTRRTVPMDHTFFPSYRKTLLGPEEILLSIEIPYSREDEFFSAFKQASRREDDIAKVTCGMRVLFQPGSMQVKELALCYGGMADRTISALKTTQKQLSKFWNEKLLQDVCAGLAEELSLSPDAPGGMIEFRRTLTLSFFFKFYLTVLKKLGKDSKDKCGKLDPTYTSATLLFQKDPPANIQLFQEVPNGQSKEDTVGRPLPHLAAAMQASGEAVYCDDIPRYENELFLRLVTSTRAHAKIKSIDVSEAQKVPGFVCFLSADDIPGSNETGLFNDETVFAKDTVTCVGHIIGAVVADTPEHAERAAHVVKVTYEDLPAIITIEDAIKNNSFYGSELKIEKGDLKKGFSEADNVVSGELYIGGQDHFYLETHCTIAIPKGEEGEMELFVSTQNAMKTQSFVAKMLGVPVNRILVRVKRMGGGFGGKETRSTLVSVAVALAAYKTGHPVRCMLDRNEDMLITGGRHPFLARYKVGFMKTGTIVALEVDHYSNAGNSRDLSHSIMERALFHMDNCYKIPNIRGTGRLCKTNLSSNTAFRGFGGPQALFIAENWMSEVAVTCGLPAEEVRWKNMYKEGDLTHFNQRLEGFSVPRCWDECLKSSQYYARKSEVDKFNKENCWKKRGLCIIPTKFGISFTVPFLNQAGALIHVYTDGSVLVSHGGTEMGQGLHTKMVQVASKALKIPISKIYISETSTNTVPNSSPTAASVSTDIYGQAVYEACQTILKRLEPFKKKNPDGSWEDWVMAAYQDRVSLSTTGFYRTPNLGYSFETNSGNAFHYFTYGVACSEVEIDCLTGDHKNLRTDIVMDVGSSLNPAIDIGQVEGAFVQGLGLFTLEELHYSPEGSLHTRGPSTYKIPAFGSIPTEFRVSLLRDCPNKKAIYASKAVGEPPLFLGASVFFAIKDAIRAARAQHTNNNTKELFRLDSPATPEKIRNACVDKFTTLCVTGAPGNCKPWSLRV

SMILES | IC50 (Bovine XO [1]) [µM] | mode of XO inhibition (Bovine XO [2]; kinetic studies) | XO inhibitory potency (in words) (Bovine XO [2]; literature statement) | XO inhibitory potency (in words) (Bovine XO [1]; reported by others [41] or measured by the authors)
O=C(/C=C/c1ccc(O)c(O)c1)OCCc1ccccc1 [Compound 1, (E)-phenethyl 3-(3,4-dihydroxyphenyl)acrylate] | 3.9 | competitive inhibitor | low micromolar range | 
O=C(/C=C/c1ccc(O)c(O)c1)Oc1ccccc1 [Compound 8, (E)-phenyl 3-(3,4-dihydroxyphenyl)acrylate] | ~0.25 |  |  | 
Cc1nc(-c2ccc(OCC(C)C)c(C#N)c2)sc1C(=O)O [febuxostat, Febuxostat, reference compound] |  |  |  | low nanomolar or subnanomolar range
